Test results from patent US9403806B1, “Cognition enhancing compounds and compositions, methods of making, and methods of treating” (NeuroSolis, Inc., priority 2010, dated 2016).

Legend:
[1] = tested on: pooled male human liver microsomes; experiment: Metabolism in human liver microsomes, Example 45; assay type: in vitro ADME
In short: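 Pooled male human liver microsomes sampled every 2 hours, reactions stopped with 1% formic acid. After centrifugation and ultrafiltration, remaining parent compound quantified by reverse-phase C8 LC/MS/MS with electrospray and MRM transitions against a standard calibration curve.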

CD-1 Mice = experiment: Novel object recognition assay; assay type: in vivo; conditions: oral dose 3.0 mg/kg, 1 hr inter-trial interval
Description: Object recognition memory—judgment of the prior occurrence of objects—is a key part of human memory, and is commonly impaired in neurodegenerative diseases, such as Alzheimer's disease (Winters B D et al Neurosci Behav Rev 32 (2008) 1055-70). This may be modeled in laboratory rodents using delayed spontaneous novel object recognition, which tests the ability of an animal to recognize an object it has previously been exposed to, after a delay. Drugs may be evaluated for their ability to improve the animal's ability to remember, recall or recognize objects in this model.
CD-1 Mice (males, 7-8 weeks old) were fasted for 16 hrs and orally dosed with compounds of interest 30 min before experiments began. Throughout those 30 min, animals were left in their home cages except during a 1 min handling habituation session at 10 min post-dosing. All handling and experiments were carried out under low, indirect light during the hours between 8 am and 3 pm. Compound 122a and donepezil were dissolved in PBS. […] Mouse activity was recorded using a digital video camera and evaluated after the trial. The time each mouse spent with its nose in contact with either object (investigation) was recorded for each minute of T2, and a Discrimination Score (D Score) was calculated using the following formula once the animal completed a total of 1 min of investigation. […]

human FMO1 Supersomes = biological target: T1, human FMO1 Supersomes (Homo sapiens, UniProt Q01740); experiment: Metabolism by flavin monoxygenase 1 (FMO1) Supersomes; assay type: in vitro ADME; conditions: after 6 hours (FIG. 2)
T1 construct: purchased BD Biosciences 456241
T1 sequence (Q01740 1-532): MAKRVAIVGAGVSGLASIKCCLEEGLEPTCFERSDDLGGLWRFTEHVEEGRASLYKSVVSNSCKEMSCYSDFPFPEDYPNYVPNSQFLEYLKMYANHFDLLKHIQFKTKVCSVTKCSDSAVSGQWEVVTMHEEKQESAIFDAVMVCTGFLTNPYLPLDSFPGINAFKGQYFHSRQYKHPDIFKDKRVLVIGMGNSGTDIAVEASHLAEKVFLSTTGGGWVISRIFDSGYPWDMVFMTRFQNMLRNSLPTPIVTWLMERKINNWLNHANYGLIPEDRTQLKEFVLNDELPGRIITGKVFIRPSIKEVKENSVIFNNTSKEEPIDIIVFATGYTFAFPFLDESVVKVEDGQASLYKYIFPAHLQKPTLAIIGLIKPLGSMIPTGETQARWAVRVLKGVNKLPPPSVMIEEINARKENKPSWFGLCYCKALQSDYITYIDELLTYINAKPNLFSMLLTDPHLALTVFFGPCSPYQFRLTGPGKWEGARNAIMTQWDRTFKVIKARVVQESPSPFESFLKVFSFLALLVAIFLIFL
Protocol: […] Aliquots were removed every 10 minutes, and 1% formic acid was added to halt the reaction. Samples were centrifuged, filtered through 0.2 micron spinfilter and the amount of each compound in the supernatants was quantitated using LC/MS/MS.

[2] = tested on: pooled male Sprague-Dawley rat liver microsomes; experiment: Metabolism by rat liver microsomes; assay type: in vitro ADME; conditions: 6 hours incubation (FIG. 3)
Protocol: (§1) Compounds were incubated with pooled male Sprague-Dawley rat liver microsomes (BD Biosciences, #452501) and an NADP-regenerating system in a phosphate buffer (pH 7.4) for a total of 6 hours. Aliquots were removed every 2 hours, and 1% formic acid was added to halt the reaction. Samples were centrifuged, filtered through 0.2 micron spinfilter and the amount of each compound in the supernatants was quantitated using LC/MS/MS.

PAMPA test, Example 34 = conditions: PAMPA
[3] = biological target: T2, human muscarinic M3 receptors (Homo sapiens, UniProt P20309); experiment: IP production in A9L cells with human M3 receptors (IPOne TR-FRET), Example 28; assay type: cell-based
T2 construct: host or cells: A9L cells
In short: (§2)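 A9L cells transfected with human M1 or M3 receptors, exposed to compound in medium with 10 mM LiCl and 10 mM HEPES (pH 7.4) for 60 min at 37 °C. IP in lysates measured by IPOne TR-FRET; efficacy expressed relative to full agonist (100%).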

[4] = tested on: pooled male human liver microsomes; experiment: Metabolism by human liver microsomes, Example 33; assay type: in vitro ADME; conditions: 6 hours incubation (FIGS. 4A, 4B)
Protocol: as §1, with “human” for “Sprague-Dawley rat”, “#452172)” for “#452501)”

[5] = biological target: T3, human muscarinic M1 receptors (Homo sapiens, UniProt P11229); experiment: IP production in A9L cells with human M1 receptors (IPOne TR-FRET), Example 28; assay type: cell-based
T3 construct: host or cells: A9L cells
T3 sequence (P11229 1-460): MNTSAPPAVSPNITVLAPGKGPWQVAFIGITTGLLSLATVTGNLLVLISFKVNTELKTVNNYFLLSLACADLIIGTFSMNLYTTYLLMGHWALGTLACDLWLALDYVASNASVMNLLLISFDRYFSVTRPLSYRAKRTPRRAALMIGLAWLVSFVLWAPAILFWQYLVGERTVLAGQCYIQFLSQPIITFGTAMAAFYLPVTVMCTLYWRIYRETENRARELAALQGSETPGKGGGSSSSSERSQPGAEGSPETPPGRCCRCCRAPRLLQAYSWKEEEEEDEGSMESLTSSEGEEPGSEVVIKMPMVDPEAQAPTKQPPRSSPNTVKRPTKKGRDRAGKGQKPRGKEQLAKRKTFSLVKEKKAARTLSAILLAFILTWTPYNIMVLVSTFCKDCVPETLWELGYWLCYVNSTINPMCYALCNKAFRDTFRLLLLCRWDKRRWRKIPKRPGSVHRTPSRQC
In short: as §2

[6] = rat, in vivo, po
in vitro = conditions: PAMPA
[7] = percentage of maximal stimulation by carbachol
[8] = potency relative to carbachol at its EC50, semi-quantitative

T2 sequence (P20309 whole entry): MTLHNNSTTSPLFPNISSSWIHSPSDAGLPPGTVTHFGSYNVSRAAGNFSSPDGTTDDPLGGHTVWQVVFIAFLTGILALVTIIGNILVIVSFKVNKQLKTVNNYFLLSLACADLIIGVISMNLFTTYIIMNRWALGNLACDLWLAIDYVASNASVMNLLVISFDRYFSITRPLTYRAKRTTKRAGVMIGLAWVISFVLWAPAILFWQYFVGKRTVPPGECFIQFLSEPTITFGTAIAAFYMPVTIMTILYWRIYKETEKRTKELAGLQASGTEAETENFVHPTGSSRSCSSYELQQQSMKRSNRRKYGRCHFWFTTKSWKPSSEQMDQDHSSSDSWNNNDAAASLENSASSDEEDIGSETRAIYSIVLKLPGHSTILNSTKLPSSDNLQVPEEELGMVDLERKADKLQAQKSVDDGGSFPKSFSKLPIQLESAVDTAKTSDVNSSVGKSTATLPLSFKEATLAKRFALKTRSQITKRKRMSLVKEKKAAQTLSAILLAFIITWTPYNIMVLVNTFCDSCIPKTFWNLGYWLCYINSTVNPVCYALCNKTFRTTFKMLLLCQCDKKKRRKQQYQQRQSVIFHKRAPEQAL

## CCCCCCOc1nsnc1C1=CCCN(C)C1 [Xanomeline, reference compound]
[1]
  Loss at 6 hrs (%): 100%
CD-1 Mice
  Mean D Score: 72.05%

## Cc1noc(C2=CCCN(C)C2)n1 [Compound 36, 3-methyl-5-(1-methyl-1,2,5,6-tetrahydropyridin-3-yl)-1,2,4-oxadiazole]
Human FMO1 Supersomes
  extent of metabolism in FMO Supersomes (in words): almost completely metabolized
[2]
  metabolism in rat liver microsomes (in words): nearly completely metabolized
PAMPA test, Example 34
  Papp: 12.8 ×10⁻⁶ cm/s
[3]; [7]
  huM3/A9L Smax: 39%
[3]; [8]
  huM3/A9L ED50 relative to CCh*: + (+ potency 2-10x CCh)
[4]
  metabolism in human liver microsomes (in words): nearly completely metabolized
[5]; huM1/A9L
  potency and efficacy at M1 muscarinic receptors (in words): reasonable potency and efficacy
[5]; huM1 versus huM3 A9L cells
  selectivity between M1 and M3 receptors: shows some selectivity for M1 versus M3 receptors
[5]; [7]
  huM1/A9L Smax: 72%
[5]; [8]
  huM1/A9L ED50 relative to CCh*: + (+ potency 2-10x CCh)

## COc1cc2c(cc1OC)C(=O)C(CC1CCN(Cc3ccccc3)CC1)C2 (stereo not drawn) [Donepezil]
CD-1 Mice
  Mean D Score: 70.35%

## CNC(=C[N+](=O)[O-])NCCSCc1ccc(CN(C)C)o1 [Ranitidine]
[6]
  Brain/plasma ratio: Very low
In vitro
  Papp: 0.26 ×10⁻⁶ cm/s
